Reference: patent US6569902B2, “Nitrone inhibition of cancer development” (Oklahoma Medical Research Foundation, priority 2000, dated 2003)
pIC50: −log10 of the molar value.

Key:
[1] = test system: rat liver microsome peroxidation; conditions: read-out: IC50, inhibition of rat liver microsome peroxidation; cited from earlier work
[2] = cited from earlier work
[3] = test system: livers of male Wistar rats fed the CDAA diet; assay: Example 2: oxidative hepatocyte injuries (8-OHdG, TBARS); type: in vivo, rat
Text: (§1) Animal experiment. After acclimation, rats were divided equally into 22 groups consisting of 5 animals each. Animals in group 1 received the CDAA diet alone. […] Groups 5-7, 8-10, 11-13 and 14-16 received the CDAA diet containing the low, middle, and high doses of 4-OHPBN, 3-OHPBN, 2-OHPBN and 2-SPBN, respectively. Group 17 received the CSAA diet alone. […] All animals were sacrificed by exsanguination under light ether anesthesia 16 weeks after commencement, and the livers excised. Slices 5-mm-thick were taken from the left lateral, median and right lateral lobes of the livers, fixed in 10% neutrally-buffered formalin for 24 hours and then embedded in paraffin. Five serial 4-μm-thick sections were prepared from each fixed liver slice and used for histological and immunohistochemical assessment as described below. The remaining portions of the livers were immediately frozen under liquid nitrogen and stored at −80° C. until use.
Determination of oxidative hepatocyte injuries. Levels of oxidative damage to the hepatocytes were determined on frozen liver samples. Oxidative damage to nuclear DNA was assessed as previously described, using the amount of 8-hydroxydeoxyguanosine (8-OHdG) to 10^6 deoxyguanosine (dG) ratio as a parameter (Nakae et al. 1995). Oxidative injury to extra-nuclear components was assessed as described elsewhere, by determining picomole malondialdehyde equivalent (MDA eq.) levels of 2-thiobarbituric acid-reacting substances (TBARS) per milligram protein (Nakae et al. 1990).
(§2) Statistics. Inter-group differences in quantitative data for multiple groups were recognized to be significant, when p values smaller than 0.05 were obtained by the Dunnett multiple comparison test employed after one-way analysis of variance to determine the variation among the group means followed by the Bartlett's test to determine the homogeniety of variance.

[4] = test system: GST-P-positive lesions in livers of male Wistar rats fed the CDAA diet; assay: Example 2: numbers and sizes of GST-P-positive liver lesions, CDAA diet for 16 weeks; type: in vivo, rat; conditions: high dose 0.090% in CDAA diet
Procedure: Animals. A total of 110 male Wistar rats were obtained at 5 weeks of age from Charles River Japan, Inc., Atsugi, Kanagawa, Japan. Experimentation began after a 1-week acclimation on a basal diet (CE-2 diet, Clea Japan, Meguro, Tokyo, Japan). Rats were housed 5 each in plastic cages with white flake bedding (Kansai Animal Corp., City of Kyoto, Kyoto, Japan) in a standard atmosphere (temperature, 25±3° C.; relative humidity, 55±8%; ventilation, 10-15/hour; and a 12-hour dark/light cycle). Free access to food and tap water was allowed throughout the acclimation and experimental periods.
Diets and chemicals. The CDAA diet and its control, a choline-supplemented, L-amino acid-defined (CSAA) diet (Nakae et al. 1992; and Nakae et al. 1990) were obtained from Dyets, Inc., Bethlehem, Pa. […] 2-Sulfoxy-PBN (2-SPBN) was purchased from Aldrich Chemical Co. (Milwaukee, Wis.).
as §1
Histological and immunohistochemical assessments. Histological assessment was performed using sections routinely stained with hematoxylin/eosin and Masson's trichrome procedures. Gradation of fibrosis was quantitatively evaluated in groups 1, 4, 7, 10, 13, 16 and 17 by calculating the percent area occupied by collagen fiber stained blue by Masson's trichrome method using an IPAP image analyzing system (Sumika Technoservice Corp., City of Osaka, Osaka, Japan). GST-P-positive lesions were visualized immunohistochemically. Lesions consisting of more than 6 cells were quantified using the IPAP system as described elsewhere (Kishida et al. 2000). The amount of apoptosis and the cellular proliferative activity were determined in groups 1, 4, 7, 10, 13, 16 and 17, using the double staining techniques by combination of the GST-P immunohistochemistry as above with the in situ terminal deoxynucleotidyl transferase-mediated dUTP-biotin nick end-labeling method (Gold et al. 1994) and the enhanced polymer one-step staining method for proliferating cell nuclear antigen (Tsutsumi et al. 1995), respectively. Numbers of apoptotic and proliferating hepatocytes among the 1000-5000 hepatocytes in GST-P-positive lesions and 5000 hepatocytes in surrounding tissue were counted under light microscopy to obtain percentages that are hereafter referred as apoptotic and proliferative indices, respectively.
as §2

[5] = test system: male Wistar rats fed the CDAA diet; assay: Example 1 main study: hepatocarcinogenesis (HCA, HCC, fibrosis) in rats fed the CDAA diet for 70 weeks; type: in vivo, rat
Text: Animals, diets and chemical. The protocols were approved prior to the experiments by the Animal Experimentation committee at Nara Medical University according to the Guidelines on Animal Experiments in accordance with Japanese Government Animal Protection and Management Law Number 105 and Japanese Government Notification on Feeding and Safekeeping of Animals Number 6. Male Wistar rats, 6 weeks old, were purchased from JapanSLC, Inc., Hamamatsu, Shizuoka, Japan. Rats were housed 5 each to a plastic cage with white flake bedding (Kansai Animal Corp., City of Kyoto, Kyoto, Japan) in an air-conditioned room (25±3° C. temperature, 55 ±8% relative humidity, 10-12/h ventilation and 12-h dark/light cycle). Rats were used for the experimentation after a 1-week acclimation on a basal diet (CE-1, Clea Japan, Meguro, Tokyo, Japan) and allowed free access to food and tap water throughout the acclimation and experimental periods. Body weight, food consumption and water intake were monitored weekly. The CDAA diet and a control CSAA diet were obtained from Dyets Inc., Bethlehem, PA.
Main study. A total of 60 rats were equally divided into 6 groups. Group 1 received the CDAA diet for 70 weeks. […] The time-point of 26 weeks after the commencement, when treatments were changed in groups 3 and 4, was decided according to the results of the pilot study (see the Results and Discussion section below). All surviving rats were sacrificed 70 weeks after the commencement, and the livers were taken. Two serial 4-μm-thick, 10%-neutrally-buffered-folmalin-fixed 9 for 24 h), paraffin-embedded liver specimens were prepared and stained routine H&E and Masson's trichrome procedures. The H&E-stained liver specimens were histologically examined according to the aforementioned criteria (Maronpot et al. 1986), and the incidences of HCA and HCC were determined. Grade of fibrosis were evaluated by analyzing percent area occupied by collagen fiber in the Masson's trichrome-stained liver specimens using an IPAP image analyzing system (Sumika Technoservice, Corp., City of Osaka, Osaka, Japan).
Statistical analyses. Statistical analyses were carried out using an InStat software (GraphPad Software, Inc., San Diego, Cali.). Fisher's exact test was used to assess statistical significance of inter-group differences of the lesion incidences. Student-Newrnan-Keuls multiple comparison test was used to assess statistical significance of inter-group differences of means after one-way ANOVA to determine variations among group means, followed by Bartlett's test to determine homogeneity of variance.

[6] = group 2: CDAA diet with PBN 0.065% in drinking water for 70 weeks, CDAA alone 57.1%
[7] = group 3: CDAA with PBN for first 26 weeks, then CDAA alone 44 weeks
[8] = group 4: CDAA alone 26 weeks, then CDAA with PBN for last 44 weeks
[9] = group 6: CSAA control diet with PBN 70 weeks (stated for groups 5 or 6)

With CC(C)(C)[N+]([O-])=Cc1ccccc1 [PBN, phenyl N-tert-butyl nitrone] as the compound, how does the pIC50 [1] read?
The pIC50 was 2.30.

What about the half-life ([2]; in rats) of the same compound?
The half-life was “about 132 minutes”.

And the tissue distribution ([2]; rat, in vivo)?
The tissue distribution was “readily and rapidly distributed almost equally to all tissues”.

And the “nuclear DNA 8-OHdG content increased by CDAA diet feeding” value ([3]; all doses, CDAA diet 16 weeks)?
Its value is “significantly inhibited”.

What about the “TBARS level enhanced by CDAA feeding” value ([3]; high dose 0.090% only) of the same compound?
Its value is “significantly inhibited”.

What about the “number of GST-P-positive lesions, % of the group 1 value” [4] of the same compound?
The value was 52%.

What about the “sizes of GST-P-positive lesions, % of the group 1 value” [4] of the same compound?
Its value is 19%.

And the “carcinogenicity of PBN itself” value ([5]; 70-week study, PBN in drinking water)?
Its value is “not carcinogenic itself”.

And the HCA incidence [5, 6]?
The HCA incidence was 25.0%.

What about the HCC incidence [5, 6] of the same compound?
The HCC incidence was 25.0%.

What about the “grade of fibrosis, percent of liver specimen occupied by fiber” value (“grade of fibrosis, percent … by fiber” below) ([5]; group 2: PBN 70 weeks, group 1 (CDAA alone) 13.32%) of the same compound?
The value was 9.95%.

What about the HCA incidence [5, 7] of the same compound?
Its HCA incidence is 28.6%.

And the HCC incidence [5, 7]?
Its HCC incidence is 0%.

What about the “grade of fibrosis, percent … by fiber” value ([5]; group 3: PBN first 26 weeks, group 1 13.32%) of the same compound?
The value was 8.71%.

What about the HCA incidence [5, 8] of the same compound?
The HCA incidence was 62.5%.

And the HCC incidence [5, 8]?
Its HCC incidence is 0%.

And the “grade of fibrosis, percent … by fiber” value ([5]; group 4: PBN last 44 weeks, group 1 13.32%)?
The value was 12.86%.

And the grade of fibrosis ([5]; group 6: CSAA control diet with PBN 70 weeks (one value stated for groups 5 or 6))?
The grade of fibrosis was 1.61%.

What about the HCA incidence [5, 9] of the same compound?
The HCA incidence was 0%.

What about the HCC incidence [5, 9] of the same compound?
Its HCC incidence is 0%.
